Measured values published in US5629298A, “Adenosine as a positive inotrop in the compromised heart” (University of Massachusetts Medical Center, priority 1995, dated 1997).
Read-outs that look alike come from different tables or passages of the source.

Key:
rat heart = assay: Isolated perfused heart, normoperfused or hypoperfused (mechanically depressed): LVP, +dP/dtmax, -dP/dtmax; conditions: for increase in +dP/dtmax / increase in -dP/dtmax / increase in LVP: hypoperfusion (mechanically depressed heart); for increase in +dP/dtmax / increase in -dP/dtmax / increase in LVP / effect on the contractile variables (LVP, +dP/dtmax, -dP/dtmax): adenosine 2×10^-5 M, DPCPX 2×10^-7 M; for increase in +dP/dtmax / increase in -dP/dtmax / increase in LVP / activation at 0.01 µM: isoproterenol 10^-8 M; for effect on the contractile variables (LVP, +dP/dtmax, -dP/dtmax) / activation at 0.01 µM: normoperfusion; for effect on the contractile variables (LVP, +dP/dtmax, -dP/dtmax): CGS-21680 2×10^-6 M; for activation at 0.01 µM: Rattus norvegicus, 5 seconds
Experimental: Male Sprague-Dawley rats (500-550 g) were anesthetized with pentobarbital (40 mg/kg, i.p.) and treated with heparin (500 units, i.p.) for 15 minutes. Hearts were excised, rinsed in iced physiological saline ("PS") and perfused with PS (37° C.) via an aortic cannula at a constant rate of 18-20 ml/min. Perfusion pressure ranged from 50 to 60 mm Hg. The PS contained: NaCl, 118 mM; KCl, 4.7 mM; CaCl2, 2.5 mM; NaHCO3, 25 mM; KH2 PO4, 1.2 mM; MgSO4 1.2 mM; glucose 10 mM; and pyruvate 1.8 mM. The pH was maintained at 7.4 by gassing the PS with a 95% O2 /5% CO2 gas mixture. Platinum wire electrodes were inserted into the right atrium to allow pacing of the heart (300 contractions per minute) throughout the perfusion period. Developed left ventricular pressure (LVP) was measured with a saline-filled balloon inserted into the lumen of the left ventricle via the left atrium and attached by a polyethylene cannula to a pressure transducer. The pressure signal was electronically differentiated to obtain the maximum rates of left ventricular pressure development (+dP/dtmax) and relaxation (-dP/dtmax). Balloon volume was varied until the maximal obtainable dP/dt was attained. This optimal preload, ranging from 5 to 10 mm Hg, was maintained constant, permitting isovolumic contraction of the heart. Aortic perfusion pressure was monitored with another pressure transducer. All the LVP, +dP/dtmax, -dP/dtmax and aortic perfusion data were continually recorded on a multichannel polygraph. At the end of the experiment, the wet heart weights were determined; they ranged from 1.4 to 1.8 g.
After instrumentation, the hearts were normoperfused at 18-20 ml/min for 20 minutes, resulting in an aortic perfusion pressure of 50-60 mm Hg. Isoproterenol, adenosine, CGS-21680, DPCPX, atenolol, or a combination of these agents was administered for 1 to 2 minutes, via the aortic perfusion cannula, at 1/100th the perfusion flow rate, to achieve the stated PS concentrations. Isoproterenol was administered for only 5 seconds. To cause mechanical depression of the perfused hearts, the perfusion flow was lowered 5-6 ml/min. The resulting aortic perfusion pressure decreased to 20-30 mm Hg. The various agents either alone or in combination were administered via the PS to the hypoperfused hearts at 1/100th the perfusion flow rate, at the concentrations indicated.

[1] = tested on: myocardial membrane adenylyl cyclase; assay: Adenylyl cyclase activity of crude ventricular myocardial membranes; assay type: biochemical, rat
Experimental: Crude ventricular myocardial membranes were prepared according to the following procedure. Isolated rat hearts were perfused with 5 ml of ice cold saline (0.9% NaCl) to wash out the blood, minced into 2-3 mm^3 cubes, and placed in 10 ml of homogenization buffer (HB) containing 10 mM HEPES (pH 7.4), 1 mM ethylenediamine-tetraacetic acid (EDTA), 1 mM DTT and 10 μg/ml soybean trypsin inhibitor. The suspension was homogenized with a PT-10 PolytronTM generator at a speed of 6 for two 15-second periods separated by 15 seconds. The homogenized material was also treated with 2 strokes of a glass/teflon motor driven Potter-Elvehjen homogenizer operated at 1/2 full speed. Upon addition of 4.7 ml of HB containing 1.25M sucrose the homogenate was mixed and centrifugated at 1,000 x g for 15 minutes. The supernatant was filtered through 4 layers of cheesecloth and 14.5 ml HB was added. […] Membranes were assayed immediately for adenylyl cyclase activity. […] The formed [α-^32 […] separated from the [α-^32 P]dATP by sequential chromatography using columns of cation exchange resin AG 50W-X4 (200-400 mesh) and neutral alumnia AG 7 (100-200 mesh) after the methods of Salomon (Adv. Cyclic Nucleotide Res. 10:35 (1979). All results were corrected for column recovery of [^3 […] ranged between 60 and 90%. The activity of the adenylyl cyclase is expressed as pmol [α-^32 […] formed/min/mg protein.

[2] = tested on: cultured ventricular myocytes; assay: cAMP content of cultured ventricular myocytes (125I-cAMP RIA); assay type: cell-based, rat; conditions: Rattus norvegicus, Ventricular myocyte
Experimental: When myocytes were to be used for biochemical studies, each of the culture dishes was preincubated for 2 hours with 1 ml of MEM containing 33 μg of laminin in a 37° C. incubator gassed with 5% CO2 in room air. The laminin solution was removed prior to myocyte seeding. After seeding, the dishes were incubated for an additional 2 hours. The settling and short term culture procedures were performed to purify the myocytes so that >95% of the myocytes adhering to the dishes were rod shaped.
Cyclic AMP levels were determined in cultures of ventricular myocytes according to the following method. After the 2-hour incubation period, the MEM was aspirated and replaced with 2 ml of fresh MEM. Adenosine agonists, ISO, or adenosine antagonists were added to the medium bathing the cells at the concentrations and times indicated. The experiment was terminated by removing the medium from the dish and adding 200 μl of 1N HCl over the cultured myocyte surface. The dishes were then frozen in liquid N2 and stored at -70° C. or held on ice momentarily until extraction was initiated.
For assay, the contents of the dishes were transferred (using 1 ml of distilled/deionized H2 O) into microcentrifuge tubes. The extracts were heated for 1 hour at 57° C. and sonicated for 10 minutes. The extracts were then centrifugated at 14,000 x g for 15 minutes. The supernatant was removed, evaporated, reconstituted in 500 μl of 50 mM sodium acetate buffer and assayed for cAMP using an ^125 I-cAMP RIA kit (Amersham). The pellet was solubilized with 0.1N NaOH and protein determined. The cAMP values are reported in pmol cAMP/mg protein of the extract pellet (total cell protein). This cAMP assay procedure routinely provided recovery values in excess of 90%.

[3] = 10 min, read-out: increase in myocyte cAMP

Compound	increase in +dP/dtmax (rat heart) [%]	increase in -dP/dtmax (rat heart) [%]	increase in LVP (rat heart) [%]	effect on the contractile variables (LVP, +dP/dtmax, -dP/dtmax) (rat heart)	adenylyl cyclase activity above basal levels ([1]; adenosine at 0 to 1 mM, absence or presence of 1 μM DPCPX, myocardium membranes)	activation at 1 µM [2, 3] [%]	activation at 10 µM [2, 3] [%]	EC50 ([2]; 10 min, read-out: EC50 for increase in myocyte cAMP) [nM]	adenylyl cyclase activity ([1]; homogenate of the rat heart ventricular myocardium, only at 1 MM CGS-21680)	activation at 0.1 µM ([2]; 1 min, ISO at 0.1 μM for 1 minutes, read-out: increase in myocyte cAMP over basal) [%]	activation at 1 µM ([2]; 1 min, ISO at 1 μM for 1 minutes, read-out: increase in myocyte cAMP over basal) [%]	activation at 0.01 µM (rat heart; read-out: increase in +dP/dtmax) [%]	activation at 0.01 µM (rat heart; read-out: increase in -dP/dtmax) [%]	activation at 0.01 µM (rat heart; read-out: increase in LVP) [%]
Nc1ncnc2c1ncn2[C@@H]1O[C@H](CO)[C@@H](O)[C@H]1O [adenosine]	25	33	26	did not affect	did not increase	–	–	–	–	–	–	–	–	–
CCNC(=O)[C@H]1O[C@@H](n2cnc3c(N)nc(NCCc4ccc(CCC(=O)O)cc4)nc32)[C@H](O)[C@@H]1O [CGS-21680, 2-p-(2-carboxy-ethyl)phenethyl-amino-5'-N-ethylcarboxamido-adenosine]	–	–	–	without affect	–	77	174	1150 ± 370	increased	–	–	–	–	–
CC(C)NCC(O)c1ccc(O)c(O)c1 (stereo not drawn) [ISO, isoproterenol]	114	225	171	–	–	–	–	–	–	90	138	167	216	119
